Columns and labels:
[1] = biological target: Ankyrin repeat and protein kinase domain-containing protein 1 (Homo sapiens) (UniProt Q8NFD2); conditions: Compound concentration 1000.0 nM
[2] = biological target: T1, Aurora kinase A (Homo sapiens) (UniProt O14965); conditions: Compound concentration 1000.0 nM
T1 sequence (whole entry): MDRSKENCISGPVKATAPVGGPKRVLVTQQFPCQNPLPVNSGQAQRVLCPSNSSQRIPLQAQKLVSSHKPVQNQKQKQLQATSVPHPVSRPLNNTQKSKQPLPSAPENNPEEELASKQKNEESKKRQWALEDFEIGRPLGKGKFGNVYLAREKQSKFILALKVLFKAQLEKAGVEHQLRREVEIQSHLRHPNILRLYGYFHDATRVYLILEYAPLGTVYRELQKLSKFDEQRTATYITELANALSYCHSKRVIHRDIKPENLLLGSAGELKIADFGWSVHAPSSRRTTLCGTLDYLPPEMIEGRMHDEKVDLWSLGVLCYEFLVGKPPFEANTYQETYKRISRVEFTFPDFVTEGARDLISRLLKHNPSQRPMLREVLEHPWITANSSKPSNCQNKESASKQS

[3] = biological target: Tyrosine-protein kinase BTK (Homo sapiens) (UniProt Q06187); conditions: Compound concentration 1000.0 nM
[4] = biological target: Fibroblast growth factor receptor 4 (Homo sapiens) (UniProt P22455); conditions: Compound concentration 1000.0 nM
[5] = biological target: Mitogen-activated protein kinase 9 (Homo sapiens) (UniProt P45984); conditions: Compound concentration 1000.0 nM
[6] = biological target: Mitogen-activated protein kinase kinase kinase kinase 5 (Homo sapiens) (UniProt Q9Y4K4); conditions: Compound concentration 1000.0 nM
[7] = biological target: Serine/threonine-protein kinase 38 (Homo sapiens) (UniProt Q15208); conditions: Compound concentration 1000.0 nM
[8] = biological target: Serine/threonine-protein kinase Nek11 (Homo sapiens) (UniProt Q8NG66); conditions: Compound concentration 1000.0 nM
[9] = biological target: T2, Serine/threonine-protein kinase NLK (Homo sapiens) (UniProt Q9UBE8); conditions: Compound concentration 1000.0 nM
T2 sequence (whole entry): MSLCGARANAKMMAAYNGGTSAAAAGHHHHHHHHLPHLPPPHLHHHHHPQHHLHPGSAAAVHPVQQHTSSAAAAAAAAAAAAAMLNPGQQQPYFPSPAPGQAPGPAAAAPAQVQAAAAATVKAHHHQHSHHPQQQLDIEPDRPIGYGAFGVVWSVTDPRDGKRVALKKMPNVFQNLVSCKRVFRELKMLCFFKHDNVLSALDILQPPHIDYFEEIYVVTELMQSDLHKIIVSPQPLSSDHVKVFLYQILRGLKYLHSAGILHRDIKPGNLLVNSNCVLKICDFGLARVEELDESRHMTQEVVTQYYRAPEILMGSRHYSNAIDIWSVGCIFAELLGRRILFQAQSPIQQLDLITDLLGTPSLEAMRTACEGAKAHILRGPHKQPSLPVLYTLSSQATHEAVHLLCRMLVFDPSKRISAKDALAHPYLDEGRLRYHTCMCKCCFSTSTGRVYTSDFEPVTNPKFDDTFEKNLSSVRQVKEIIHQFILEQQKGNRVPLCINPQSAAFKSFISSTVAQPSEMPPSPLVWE

[10] = biological target: T3, Mitogen-activated protein kinase 12 (Homo sapiens) (UniProt P53778); conditions: Compound concentration 1000.0 nM
T3 sequence (whole entry): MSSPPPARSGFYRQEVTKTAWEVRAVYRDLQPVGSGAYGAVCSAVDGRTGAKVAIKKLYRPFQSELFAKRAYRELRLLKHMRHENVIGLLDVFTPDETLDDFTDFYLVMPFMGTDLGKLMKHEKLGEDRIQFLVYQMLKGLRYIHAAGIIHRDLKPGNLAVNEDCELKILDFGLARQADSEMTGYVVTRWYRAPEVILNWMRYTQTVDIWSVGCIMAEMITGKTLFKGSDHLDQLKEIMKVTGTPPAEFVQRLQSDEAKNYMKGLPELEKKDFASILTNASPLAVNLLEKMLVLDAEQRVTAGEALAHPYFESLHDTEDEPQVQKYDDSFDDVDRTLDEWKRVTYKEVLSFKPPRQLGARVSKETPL

[11] = biological target: Serine/threonine-protein kinase pim-3 (Homo sapiens) (UniProt Q86V86); conditions: Compound concentration 1000.0 nM
[12] = biological target: Serine/threonine-protein kinase ULK2 (Homo sapiens) (UniProt Q8IYT8); conditions: Compound concentration 1000.0 nM
[13] = biological target: T4, 5-hydroxytryptamine receptor 2C (Homo sapiens) (UniProt P28335); conditions: Compound concentration 10.0 uM
T4 sequence (whole entry): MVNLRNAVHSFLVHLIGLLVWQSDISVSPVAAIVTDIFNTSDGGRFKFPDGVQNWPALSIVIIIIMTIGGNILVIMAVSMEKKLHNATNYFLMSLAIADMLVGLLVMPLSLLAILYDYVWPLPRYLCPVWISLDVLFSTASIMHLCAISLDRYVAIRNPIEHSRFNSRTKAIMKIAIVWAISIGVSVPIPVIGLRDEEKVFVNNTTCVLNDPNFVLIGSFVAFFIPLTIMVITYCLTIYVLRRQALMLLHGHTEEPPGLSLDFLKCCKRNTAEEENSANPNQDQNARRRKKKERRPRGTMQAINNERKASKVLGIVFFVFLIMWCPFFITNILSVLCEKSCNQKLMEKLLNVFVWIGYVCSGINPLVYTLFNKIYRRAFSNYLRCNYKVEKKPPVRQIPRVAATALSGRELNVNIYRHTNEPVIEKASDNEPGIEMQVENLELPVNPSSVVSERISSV

Sequence of Mitogen-activated protein kinase 9 (Homo sapiens) (P45984 whole entry, looked up): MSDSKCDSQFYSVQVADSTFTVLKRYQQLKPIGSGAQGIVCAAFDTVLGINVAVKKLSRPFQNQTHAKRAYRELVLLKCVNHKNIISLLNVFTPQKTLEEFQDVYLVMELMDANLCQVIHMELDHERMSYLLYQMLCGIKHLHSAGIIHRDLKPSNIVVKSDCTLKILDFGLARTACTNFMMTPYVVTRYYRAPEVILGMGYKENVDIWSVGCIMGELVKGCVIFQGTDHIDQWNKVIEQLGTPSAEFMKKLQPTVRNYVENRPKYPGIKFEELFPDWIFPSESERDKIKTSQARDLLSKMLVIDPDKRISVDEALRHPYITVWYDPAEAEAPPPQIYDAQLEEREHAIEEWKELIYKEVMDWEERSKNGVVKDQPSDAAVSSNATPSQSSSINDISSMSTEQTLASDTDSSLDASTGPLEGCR
Sequence of Tyrosine-protein kinase BTK (Homo sapiens) (Q06187 whole entry): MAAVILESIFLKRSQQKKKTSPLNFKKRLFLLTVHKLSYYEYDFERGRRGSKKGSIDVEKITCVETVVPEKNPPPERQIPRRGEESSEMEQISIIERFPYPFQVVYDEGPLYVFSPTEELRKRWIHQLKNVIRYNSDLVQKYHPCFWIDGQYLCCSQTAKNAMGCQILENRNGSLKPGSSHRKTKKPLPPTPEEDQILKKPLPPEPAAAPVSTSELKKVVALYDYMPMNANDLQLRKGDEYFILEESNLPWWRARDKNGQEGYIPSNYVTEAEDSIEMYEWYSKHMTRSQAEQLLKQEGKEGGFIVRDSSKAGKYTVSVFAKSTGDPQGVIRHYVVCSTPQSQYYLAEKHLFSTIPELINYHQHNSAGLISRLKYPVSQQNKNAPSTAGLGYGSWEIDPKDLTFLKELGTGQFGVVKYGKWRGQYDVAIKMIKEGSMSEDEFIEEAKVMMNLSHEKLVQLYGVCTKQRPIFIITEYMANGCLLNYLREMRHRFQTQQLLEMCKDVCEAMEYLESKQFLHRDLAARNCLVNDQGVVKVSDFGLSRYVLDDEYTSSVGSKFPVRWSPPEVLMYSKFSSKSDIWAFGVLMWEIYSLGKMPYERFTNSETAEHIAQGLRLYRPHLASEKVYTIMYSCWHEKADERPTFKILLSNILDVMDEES
Sequence of Serine/threonine-protein kinase Nek11 (Homo sapiens) (Q8NG66 whole entry): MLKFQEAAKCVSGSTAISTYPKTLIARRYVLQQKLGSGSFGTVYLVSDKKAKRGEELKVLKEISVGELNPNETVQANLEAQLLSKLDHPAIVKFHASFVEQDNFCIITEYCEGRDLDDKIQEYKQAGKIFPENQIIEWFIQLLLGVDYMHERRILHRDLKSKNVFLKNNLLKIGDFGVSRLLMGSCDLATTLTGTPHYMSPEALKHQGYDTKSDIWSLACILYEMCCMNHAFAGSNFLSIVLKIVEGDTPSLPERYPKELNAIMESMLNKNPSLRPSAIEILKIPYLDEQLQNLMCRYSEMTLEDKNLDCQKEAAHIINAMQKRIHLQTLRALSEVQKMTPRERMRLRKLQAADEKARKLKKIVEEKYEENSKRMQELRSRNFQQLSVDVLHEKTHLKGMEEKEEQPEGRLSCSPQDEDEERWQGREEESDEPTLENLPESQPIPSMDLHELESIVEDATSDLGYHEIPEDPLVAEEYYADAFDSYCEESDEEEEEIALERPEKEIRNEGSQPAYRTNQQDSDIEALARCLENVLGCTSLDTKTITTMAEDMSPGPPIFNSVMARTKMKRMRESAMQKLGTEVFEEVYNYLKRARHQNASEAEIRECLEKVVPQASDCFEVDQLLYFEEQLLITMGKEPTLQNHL
Sequence of Fibroblast growth factor receptor 4 (Homo sapiens) (P22455 22-802 limits assumed): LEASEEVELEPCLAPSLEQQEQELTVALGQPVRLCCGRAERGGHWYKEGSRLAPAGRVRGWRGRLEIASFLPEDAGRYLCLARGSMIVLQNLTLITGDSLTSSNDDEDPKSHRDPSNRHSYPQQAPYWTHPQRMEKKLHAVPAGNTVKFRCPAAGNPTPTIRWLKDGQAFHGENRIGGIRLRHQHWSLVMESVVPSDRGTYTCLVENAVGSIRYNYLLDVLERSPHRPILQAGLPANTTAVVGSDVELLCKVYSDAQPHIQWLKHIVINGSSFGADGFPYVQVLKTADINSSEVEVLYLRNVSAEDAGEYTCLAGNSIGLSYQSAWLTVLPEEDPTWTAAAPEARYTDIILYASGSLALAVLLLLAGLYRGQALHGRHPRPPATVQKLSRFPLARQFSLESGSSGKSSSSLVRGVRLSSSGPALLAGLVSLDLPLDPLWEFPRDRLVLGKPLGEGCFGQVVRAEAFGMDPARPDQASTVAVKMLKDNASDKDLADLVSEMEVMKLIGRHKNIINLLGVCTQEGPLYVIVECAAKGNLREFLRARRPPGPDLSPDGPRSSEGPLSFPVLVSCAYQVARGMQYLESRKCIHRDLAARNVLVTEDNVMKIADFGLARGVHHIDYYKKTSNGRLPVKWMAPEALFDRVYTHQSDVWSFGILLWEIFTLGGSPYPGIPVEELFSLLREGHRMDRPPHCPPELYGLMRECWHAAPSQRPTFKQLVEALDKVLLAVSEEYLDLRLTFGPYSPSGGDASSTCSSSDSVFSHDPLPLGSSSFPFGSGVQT
Sequence of Mitogen-activated protein kinase kinase kinase kinase 5 (Homo sapiens) (Q9Y4K4 whole entry, looked up): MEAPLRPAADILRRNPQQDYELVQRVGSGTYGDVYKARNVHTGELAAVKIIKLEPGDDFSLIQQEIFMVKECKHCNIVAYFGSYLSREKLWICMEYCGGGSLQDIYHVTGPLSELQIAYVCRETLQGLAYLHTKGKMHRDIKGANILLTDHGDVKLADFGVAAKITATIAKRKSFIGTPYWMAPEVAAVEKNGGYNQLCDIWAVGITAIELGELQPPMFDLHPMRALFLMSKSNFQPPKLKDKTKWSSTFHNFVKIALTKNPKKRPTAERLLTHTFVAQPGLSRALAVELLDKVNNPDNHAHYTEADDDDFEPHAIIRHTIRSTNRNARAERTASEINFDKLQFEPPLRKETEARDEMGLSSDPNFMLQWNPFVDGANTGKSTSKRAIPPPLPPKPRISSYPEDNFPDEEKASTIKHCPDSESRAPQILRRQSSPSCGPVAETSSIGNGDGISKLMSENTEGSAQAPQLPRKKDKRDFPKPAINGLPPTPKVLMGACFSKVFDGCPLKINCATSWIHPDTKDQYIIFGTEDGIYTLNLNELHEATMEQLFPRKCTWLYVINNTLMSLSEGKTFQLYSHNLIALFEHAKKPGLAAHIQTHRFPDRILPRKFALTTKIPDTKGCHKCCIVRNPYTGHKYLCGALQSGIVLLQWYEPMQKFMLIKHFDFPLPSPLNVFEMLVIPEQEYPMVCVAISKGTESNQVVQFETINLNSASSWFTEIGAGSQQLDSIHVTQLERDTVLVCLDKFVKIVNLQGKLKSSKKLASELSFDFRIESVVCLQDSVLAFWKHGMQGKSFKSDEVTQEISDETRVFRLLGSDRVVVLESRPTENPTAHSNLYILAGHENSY
Sequence of Serine/threonine-protein kinase 38 (Homo sapiens) (Q15208 2-465 limits assumed): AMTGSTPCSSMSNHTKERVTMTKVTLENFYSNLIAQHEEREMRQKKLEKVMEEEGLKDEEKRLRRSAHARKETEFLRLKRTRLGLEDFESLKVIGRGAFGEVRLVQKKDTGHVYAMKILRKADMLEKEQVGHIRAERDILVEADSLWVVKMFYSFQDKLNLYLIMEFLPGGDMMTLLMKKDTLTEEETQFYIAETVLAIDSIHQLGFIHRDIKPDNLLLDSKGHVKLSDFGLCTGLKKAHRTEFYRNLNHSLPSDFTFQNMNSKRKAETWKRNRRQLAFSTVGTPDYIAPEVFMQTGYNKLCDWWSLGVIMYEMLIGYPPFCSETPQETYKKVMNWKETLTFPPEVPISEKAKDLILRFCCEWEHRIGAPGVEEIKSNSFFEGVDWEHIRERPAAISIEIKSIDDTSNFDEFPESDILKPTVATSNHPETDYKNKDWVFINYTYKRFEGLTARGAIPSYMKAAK
Sequence of Ankyrin repeat and protein kinase domain-containing protein 1 (Homo sapiens) (Q8NFD2 whole entry, the tested form may be a part): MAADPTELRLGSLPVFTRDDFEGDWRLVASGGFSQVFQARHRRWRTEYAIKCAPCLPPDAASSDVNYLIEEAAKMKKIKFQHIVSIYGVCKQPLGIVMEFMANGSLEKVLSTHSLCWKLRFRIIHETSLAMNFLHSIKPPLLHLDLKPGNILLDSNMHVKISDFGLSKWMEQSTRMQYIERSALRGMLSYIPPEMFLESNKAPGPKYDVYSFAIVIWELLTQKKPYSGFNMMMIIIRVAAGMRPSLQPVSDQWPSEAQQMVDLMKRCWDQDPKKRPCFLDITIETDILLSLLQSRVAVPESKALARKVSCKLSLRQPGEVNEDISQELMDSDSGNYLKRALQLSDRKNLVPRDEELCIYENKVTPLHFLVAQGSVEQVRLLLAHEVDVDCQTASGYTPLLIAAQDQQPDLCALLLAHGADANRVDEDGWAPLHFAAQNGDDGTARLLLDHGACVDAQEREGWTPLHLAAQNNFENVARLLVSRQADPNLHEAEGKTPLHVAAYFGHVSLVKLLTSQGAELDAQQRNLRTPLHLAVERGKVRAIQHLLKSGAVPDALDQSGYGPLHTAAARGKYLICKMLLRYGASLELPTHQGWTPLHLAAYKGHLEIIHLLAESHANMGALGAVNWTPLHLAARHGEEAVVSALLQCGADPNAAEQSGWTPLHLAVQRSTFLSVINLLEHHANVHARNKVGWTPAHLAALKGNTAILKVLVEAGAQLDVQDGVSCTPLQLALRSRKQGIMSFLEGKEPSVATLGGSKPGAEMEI

CN(C)C(=O)Cn1cc(-c2nc(C3(c4ccc(-c5cnc(N)nc5)cc4)CC3)no2)cn1 [BI 0153]
inactive: residual activity [1] 81% | residual activity [2] 82% | residual activity [3] 82% | residual activity [4] 100% | residual activity [5] 81% | residual activity [6] 89% | residual activity [7] 84% | residual activity [8] 90% | residual activity [9] 94% | residual activity [10] 62% | residual activity [11] 100% | residual activity [12] 78% | inhibition [13] 9.74%

CN(C)C(=O)Cn1cc(-c2nc([C@@](C)(c3ccc(-c4cnc(N)nc4)cc3)C3CC3)no2)cn1 [BI 665915]
inactive: residual activity [1] 81% | residual activity [2] 73% | residual activity [3] 73% | residual activity [4] 88% | residual activity [5] 75% | residual activity [6] 86% | residual activity [7] 80% | residual activity [8] 100% | residual activity [9] 95% | residual activity [10] 94% | residual activity [11] 96% | residual activity [12] 100% | inhibition [13] 0.496%

From ChEMBL document CHEMBL4507276 (2021)
